# Data: paper PMC9343080, “Distribution- and Metabolism-Based Drug Discovery: A Potassium-Competitive Acid Blocker as a Proof of Concept” (Research, 2022)
# Read-outs that look alike come from different tables or passages of the source.
# How the values were obtained:
# [1] = log D7.4 measurement (1-octanol/PBS pH 7.4); format: physicochemical
# Description: (§1) Procedure for pKa and log D7.4 measurements. The pKa was determined using pH-metric Method from DMSO Stock Solution. Procedure for Log D determinations: 15 µL of stock solutions of test compounds and control compound was placed in order into their proper 96-well rack. 500 µL of PBS saturated 1-octanol was added into each vial of the cap-less Log D plate followed by the addition of 500 µL of 1-octanol saturated PBS (pH 7.4). One stir stick was added to each vial and a molded PTFE/Silicone plug was used to seal each vial. Then the Log D plate was transferred to the Eppendorf Thermomixer Comfort plate shaker and shaken at 25°C at 1,100 RPM for 1 hour. After completion of 1 hour, plugs were removed and the stir sticks were removed using a big magnet. The samples were then centrifuged at 25°C at 20,000 g for 20 minutes to separate the phases, and pipette and syringe were used to remove the upper (1-octanol) and lower (buffer) phases to the empty tubes, respectively. Aliquots of 5 µL were taken from upper phases followed by addition of 495 µL of a mixture of H2O and acetonitrile (1:1 in v/v). Vortex for 1 minute, and then aliquots of 50 µL were taken from the diluent followed by addition of 450 µL of a mixture of H2O and acetonitrile (1:1 in v/v). And aliquots of 50 µL were taken from lower phases followed by addition of 450 µL of a mixture of H2O and acetonitrile (1:1 in v/v). 200 μL of diluent was transferred to a new 96-well plate for LC-MS/MS analysis. The dilution factor was changed according to the Log D value and the LC-MS signal response. The concentrations of test compound and control compound in 1-octanol/buffer solution were evaluated by LC-MS/MS. The Log D values of the test compounds and control compound were calculated as follows: […]
# [2] = pKa measurement (pH-metric method); format: physicochemical
# Description: as §1
# [3] = Rat microsomal stability; format: in vitro ADME
# Description: The in vitro metabolic stabilities of selected compounds were performed using human and rat liver microsomes in triplicate as described previously.
# [4] = system: 2-DG-stimulated gastric acid secretion; assay: In vivo inhibition of 2DG-stimulated acid secretion in anesthetized rats; set-up: species or system rat
# Description: 60 SPF SD rats weighing 180-220 g were randomly divided into […]: sham, model, SH-337 (2 mg/kg and 4 mg/kg), vonoprazan (2 mg/kg), males and females are equally divided. Fasting for 24 hours, model and sham groups were treated with deionized water. Drugs and vehicle were given through intragastric administration to rats before anesthesia. 1 h after administration, pylorus was ligated. 5 min later, histamine 2HCl (30 mg/10 mL/kg) was injected subcutaneously. At 3 h after histamine administration, the rats were killed by CO2 asphyxiation. The gastric contents were collected in a 10 mL centrifuge tube after removing their stomachs. Centrifuge at 3000 g for 10 min, and then, determine the total acid output during a 3 h period by 0.1 M NaOH [52, 53]. %Inhibition = (average of modelacid–drugacid)/average of modelacid × 100%.
# The 2DG-stimulated acid secretion in anesthetized rats was measured as described as for histamine-stimulated acid secretion, with the exception that 5 min after pylorus ligation, 2-DG (200 mg/10 mL/kg) was injected subcutaneously.
# [5] = Metabolite identification and profiling in rat liver microsomes; format: in vitro ADME; conditions: SH-337 10 µM, 30 min incubation
# Description: Liver microsomes (1 mg protein/mL) were suspended in phosphate buffer (50 mM, pH 7.4) containing MgCl2 (6 mM). […] The reactions were initiated at 37°C by the addition of 1 mM NADPH and terminated at 30 min or 60 min (30 min for rat; 60 min for human). The samples were precipitated with acetonitrile at 1 : 2 and further centrifuged; the supernatants were dried with a stream of N2 gas. The residues were reconstituted with 300 μL of 10% acetonitrile/H2O (0.1% TFA) and analyzed by LC-MS/MS. The assays were pursued under the conditions provided in Supplementary Tables S4, S6, S7, and S8.
# [6] = Metabolite identification and profiling in human hepatocytes; format: in vitro ADME; conditions: SH-337, human hepatocytes, 120 min incubation
# Description: SH-337 was incubated with rat or human hepatocytes at a concentration of 1.0 × 10^6 cells/mL for 60 min or 120 min (rat 60 min, human 120 min) at 37°C in a CO2 incubator. The samples were precipitated with acetonitrile at 1 : 2 and further centrifuged; the supernatants were dried with a stream of N2 gas. The residues were reconstituted with 300 μL of 10% acetonitrile/H2O (0.1% TFA) and analyzed by LC-MS/MS. The assays were pursued under the conditions provided in Supplementary Tables S5–S8.
# [7] = Acute (single-dose) toxicity test; format: in vivo; conditions: SD rats, single dose of 1000 mg/kg, i.g.
# Description: (§2) For acute toxicity test: 12 SPF SD rats were randomly divided into three groups and received a single dose of SH-337 (1000 mg/kg, i.g.), and the animal tolerance was recorded within 2 hours. For two-week repeat-dose toxicity test: 20 SPF SD rats were randomly divided into two groups and received SH-337 (100, 200 mg/kg, i.g.) once daily for 14 days. SH-337 was dissolved in 0.5% CMC-Na. The body weight of the rats was recorded every 7 days. During the experiment, clinical parameters included apparent changes in the mental state, skin or fur, behavior, genitals, mucous membranes, respiration, stool consistency, glandular organ secretions, mortality, or other toxic results that were recorded. In addition, animal bodyweight and food intake were assessed once weekly over the study period. At the end of the experiment, the rats were sacrificed, and the serum hematological parameters and serum biochemistry parameters were recorded.
# [8] = Two-week repeat-dose toxicity test; format: in vivo, SD rats
# Description: as §2
compound,measurement,setting,value
"CNCc1cc(-c2ccc(OCC3CC3)cc2F)n(S(=O)(=O)c2cccnc2)c1.Cl.Cl [SH-337, 1-(5-(4-(cyclopropylmethoxy)-2-fluorophenyl)-1-(pyridin-3-ylsulfonyl)-1H-pyrrol-3-yl)-N-methylmethanamine dihydrochloride]",logD at 1 h,"[1]; 1-octanol/PBS, pH 7.4, pH 7.4",1.3
same,log D7.4,[1]; pH 7.4,1.28
same,pKa,[2],9.03
same,pKa,[2]; read-out: pKa,9
same,fold reduction of t1/2 vs. vonoprazan,[3]; rat microsomes,17.6 fold
same,half-life,"[3]; rat, rat liver microsomes, read-out: Metabolic stability (t1/2) rat",3.1 min
same,"Inhibition (%), 2-DG-stimulated model",[4]; i.g. 2 mg/kg,78%
same,"Total acid output, 2-DG-stimulated model",[4]; i.g. 2 mg/kg,0.65 ± 0.31^∗∗ 10^−4 mol
same,"Inhibition (%), 2-DG-stimulated model",[4]; i.g. 4 mg/kg,91%
same,"Total acid output, 2-DG-stimulated model",[4]; i.g. 4 mg/kg,0.29 ± 0.29^∗∗ 10^−4 mol
same,"Relative peak area, RLMs",[5],45.7%
same,"Relative peak area, Hheps",[6],76.5%
same,animal death,[7],no animal death was observed
same,single-dose toxicity (tolerance),[7],well tolerated
same,"NOAEL, fold higher than vonoprazan",[8]; 100 mg/kg vs. 30 mg/kg,3.3 fold
same,NOAEL at 14 days,"[8]; SD, rat, in vivo, po, no observed adverse effect level (NOAEL)",≥ 100 mg/kg
same,repeated-dose toxicity findings,"[8]; rats, daily oral 100 mg/kg for 2 weeks",no evidence of SH-337 toxicity was observed
